Experimental data reported in US20040142379A1, “Affinity fishing for ligands and proteins receptors” (Carlsberg Research Laboratory, priority 2003, published 2004).
Entries after “also recorded” stand apart in the source; their conditions may differ. Non-standard residues stand in square brackets, D forms with d. No end group written: not given here. Aze = O=C(O)[C@@H]1CCN1

test system: six protein mixture: Con A, P. sativum lectin, L. culinaris lectin, W. floribunda lectin, Glyceraldehyde 6-phosphate, and bovine serum albumin (BSA); assay: not given; conditions: proteins eluted from ligand on PEGA6000 resin with 0.5 M mannose and/or N-acetylglucosamine
Description: The ligand-resin was washed with 10 mM PBS buffer, pH 6.8 containing 1 mM CaCl2 and 1 mM MnCl2. A mixture of unlabelled proteins, Glycerol-3-phosphate: BSA: Wisteria floribunda: Lens culinaris: Pisatum sativum in a […] weight ratio was dissolved in 10 mM PBS buffer, pH 6.8 containing 1 mM CaCl2 and 1 mM MnCl2 The protein mix (3.5 mL, ca. 1.2 mg protein) was applied to each ligand column and allowed to bind overnight. The column was washed with the same buffer until no more protein was eluted (Abs 280 nm). Bound protein was eluted from the column using 0.5M mannose in 10 mM PBS buffer, pH 8.0 containing CaCl2 and 1 mM MnCl2 (buffer filtered to remove CaOH2 formed) for glycopeptides containing only mannose, 0.5 M N-acetylglucosamine in 10 […] mM PBS buffer, pH 8.0 containing CaCl2 and 1 mM MnCl2 (buffer filtered to remove CaOH2 formed) for glycopeptides containing only GlcNAc, and both buffers for glycopeptides containing both mannose and GlcNAc, or for unglycosylated peptides. Samples were obtained in about 700 μL volume and frozen for later protein identification.

Substance	Identified Protein(s)
GPKKYH	Con A, P. sativum lectin,; also recorded: L. culinaris lectin
GlcNN-Trp-Phe-Asp-Trp-Pro	Con A
GlcNN-Val-GlcNN-His-ManS-Gly	Con A, P. sativum lectin
ManN-ManS-ManN-Trp-Ser-Trp	Con A, P. sativum lectin,; also recorded: L. culinaris lectin
ManN-Phe-Trp-Ser-Lys-His	Con A, P. sativum lectin
ManS-GIy-GlcNN-Asn-ManS-Tyr	Con A, P. sativum lectin,; also recorded: L. culinaris lectin
ManS-Gly-ManS-Asp-Asn-Ala	Con A, P. sativum lectin

test system: E. coli membrane proteins; assay: Solid phase screening of Library 2 with E. coli membrane proteins; on-bead tryptic digest and protein identification; format: binding, Escherichia coli DH 5α-136; conditions: proteins bound to resin-bound Library 2 ligand; LA low abundance, M inner or outer membrane, P periplasmic space
Description: A 400 mL culture of Escherichia coli DH 5α-136 (Carlsberg Research Center Collection) was prepared according to the procedures described in Hanahan, 1985, In: DNA Cloning, Vol 1, Glover, D., ed., IRL Press Ltd, pp. 109-135. Cells were grown from innocula in LB media at 37° C. for 5 to 6 hours and harvested in the latter log phase at an optical density of 0.8 (600 nm) by centrifugation (10,000 rpm for 10 minutes at 4° C.). The media containing extracellular protein was retained and the pellet washed once with PBS, pH 7.6 (cellular weight=2.22 g).
Isolation of E. coli membrane proteins was achieved through modification of published literature procedures: Auer, et al., 2001, Biochemistry, 40:6628-6635, and Molloy, et al., 2000, Eur. J. Biochem. 267:2871-2881. After incubation of E. coli cells for 2 days, washed cells were scraped from plates and centrifuged as described above for Example 10. The cell pellet (approximately 1 g) was suspended in 50 mM Tris HCl, pH 7.5 and pressed (2×) in a French Press at 1500 Psi. The resulting suspension was centrifuged at 2500×g for 10 minutes. The ice cold supernatant was diluted with 2.5 ml of ice-cold 0.1 M sodium carbonate buffer 11 and the solution stirred on ice for 1 hour. Ultracentrifugation was then carried out at 115, 000×g for 1 to 1.5 hours at 4° C., yielding Pellet 1 and Supernatant 1. The membrane pellet 1 was resuspended in 50 mM Tris HCl, pH 7.5 and the pellet was recollected after centrifugation for an additional 20 minutes at 115,000×g, yielding Pellet 2 and supernatant 2. Pellet 2 was solubilized in 50 mM Tris HCl, pH 7.5 containing 10 mM imidazole, 0.5 mM PMSF, 20% glycerol, and 1% Dodecyl Maltoside (DDM) or 33 mM Octyl Glucoside (OG) for 30 minutes at 4° C. The suspension was then centrifuged for 10,000 g for 30 minutes. The pellet and supernatant obtained were labeled Pellet 3 and supernatant 3.
Protein content was determined by checking the absorbance of the protein at 280 nm. The protein concentration in the DDM sample was 0.93 mg/mL, while in the OG sample 0.07 mg/mL protein was obtained.
The protein was labeled with amino reactive succinylanthranilate dye (blue) DDM (0.49 mg dye) and OG (0.03 mg dye) according to the same protocol used in the extracellular labeling described above for Example 12. The labeling stopping reaction (hydroxylamine hydrochloride addition) was not used in this case, to avoid dilution of the protein. The mixture was dialyzed overnight against 10 mM PBS buffer, pH 6.8 containing 0.01 mM ZnCl2, 0.01 mM CaCl2, 0.01 mM MnCl2, and 0.01 mM MnSO4, against a three time buffer change.
The ligand library was then washed, and E. coli labeled membrane protein, prepared as described above for Example 13, was added (0.1 ml). The ligand library and protein mixture was incubated overnight at room temperature.
A typical analysis employed 100-300 laser shots.
Beads containing 40 different specific ligands that bind E. coli protein, the binding ligands isolated by the process described for Example 16 and identified as described for Example 19, were placed into 40 wells of a Multiwell filter plate (Multiscreen DV plates, Millipore). Control beads containing PEGA4000 resin plus the spacer and linker with no ligand compound were used. The binding of unlabeled E. coli proteins was carried out in duplicate. The ligand beads were washed with Millipore water for 3×5 minutes and then with 10 mM PBS buffer (as described for Example 15) for 3×5 minutes under vacuum. Unlabeled E. coli protein, produced as described for Example 13, (400 μg) was added to each well and incubated at room temperature overnight. The next day, the unbound protein solution from each well was removed under suction and the beads were washed with Millipore water and buffer respectively for 3×5 minutes under vacuum.
Protein was cleared from beads containing protein-ligand binding “positive hits” isolated as described for Examples 21 (myocyte proteins) and 22 (E. coli proteins). […]

Substance	Identified Protein(s)
T(Sa)-F-A-L-V	Chaperone DnaK, putative hydrolase, transposase
T(Sa)-F-G-I-M	Transposase, transcriptional regulator (LA), GroEL, protein involved in the taurine; also recorded: transport system (M)
T(Sa)-F-G-I-W	Histidine synthetase, aspartate carbamoyl transferase, protein involved in permease; also recorded: transport system (M)
T(Sa)-F-G-L-M	Hemolysin C, high affinity potassium transport system (M), quinone oxidoreductase; also recorded: (M), ferrodoxin dependent NA(D)PH oxidoreductase (M)
T(Sa)-F-N-H-S	Phosphate acetyl transferase, acid shock protein, molybdopterin converting factor; also recorded: subunit
T(Sa)-F-V-W-H	NADH dehydrogenase (M), protein involved in flagellar biosynthesis and motor; also recorded: switching component (M); also recorded: Lysine-arginine-ornithine-binding protein (P), ATP-binding component of glycine-; also recorded: betaine-proline transport protein (P)
T(Sa)-G-V-F-L	50 S ribosomal protein, heme binding lipoprotein (M), regulator for D-glucarate, D- and glycerate and D-galactarate, glutamine tRNA synthetase
T(Sa)-H-I-G-Y	Fimbrial subunit, outer membrane pyruvate kinase (LA, M)
T(Sa)-H-L-G-Y	Protein involved in lipopolysaccharide biosynthesis (M), phosphomannose isomerase
T(Sa)-H-W-H-I	Mannose-1-phosphate guanyl transferase, isopropyl malate dehydrogenase (M)
T(Sa)-H-W-H-L	Chorismate mutase, xanthine dehydrogenase, carbamoyl phosphate synthetase
T(Sa)-H-W-V-V	Pyruvoyl dependent aspartate decarboxylase, colicin E2, Histidine kinase (M)
T(Sa)-I-Y-L-F	Membrane bound ATP synthetase (M), ATP hydrolase
T(Sa)-L-S-W-W	NAD-dependent 7-alpha-hydroxysteriod dehydrogenase, homocysteine transferase,; also recorded: nitrate reductase (P), lactate dehydrogenase, citrate synthetase
T(Sa)-L-Y-I-F	Colicin, hypothetical membrane protein (M) outer membrane lipoprotein (M),; also recorded: arylsulfatase
T(Sa)-L-Y-L-F	Fimbrial protein precursor, alkaline phosphatase (P), cytochrome related proteins (P),
T(Sa)-M-V-N-W	ATP dependent helicase, mob C
T(Sa)-W-V-N-M	Transposase, inner membrane protein for phage attachment (M)
T(Sa)-Y-S-M-P	Biotin synthetase, UDP-glucose dehydrogenase, tyrosine protein kinase (LA), fatty; also recorded: acid oxidase complex proteins

test system: Normal Myocytes (basal) protein mixture; assay: Solid phase screening of Library 1 with labeled myocyte proteins; on-bead affinity isolation and peptide mass fingerprinting of bound protein (basal); format: binding, neonatal Wistar rats; conditions: proteins bound to resin-bound Library 1 ligand, primarily present in basal cells; LA low abundance, M transmembrane or partially embedded, MA membrane associated; parentheses = possible complexes
Description: Myocytes were prepared from 1 to 5 day old neonatal Wistar rats (University of Copenhagen) according to literature procedure described in Busk et al., 2002, Cardiovasc. Res., 56: 64-75 and plated into eight P10 culture plates at 6 million cells/plate. Cells were grown at 37° C. and 5% CO2 humidity in serum free Modified Eagle Media (MEM). After 2 days, the adherent cells were washed at room temperature with serum free MEM (2×) and fresh MEM was added. To four of the plates, 10 μM phenylephrine (PE) was also added. Cells were grown for two more days and then harvested as described below.
Protein was extracted from myocytes prepared as described above for Example 9, using a new procedure modified from existing protocols, primarily: Arnott, et al., 1998, Anal. Biochem. 258: 1-18. The media was removed from plates and adhered cells were treated for 10 minutes with ice cold phosphate buffer (0.25 mL, 10 mM, pH 7.5, augmented with 0.15 M NaCl 60 mM Benzamidine HCl, 5 mM EDTA, 10 μg/mL E-64, 10 μg/mL Leupeptin, 10 μg/mL Pepstatin A, and 1 mM PMSF). The cells were scraped off the plates and then lysed (on ice) in a sonicator (2×) using 10 seconds off/10 seconds on cycles.
The resulting suspension was augmented with CHAPS, DTT, and urea to a final concentration of CHAPS (1% w/v), DTT (5 mM), and urea (8 M). After 10-15 minutes on ice, the solution was centrifuged for 10 minutes at 15,000 rpm at 4° C. The supernatant was removed and protein content quantified using the NanoOrange Protein test (Molecular Probes, Eugene, Oreg.): Total protein recovered: 70.5 μg for PE-treated cells and 60 μg for basal cells.
Fluorescent dye Oregon Green 514 (OR) (Molecular Probes) was used to label the healthy/basal cells while Rhodamine Red (RR) (Molecular Probes) was used to label the PE-treated cells. The labeling procedures were carried out according to the manufacturer's protocol. The protein solutions (0.25 mL, 50.4 μg for PE cells and 0.25 mL, 42.8 μg for basal cells) were dialyzed against a solution of 10 mM phosphate buffer, 0.15 M NaCl, pH 7.5 and then 1 M NaHCO3 (0.025 mL) added to a final pH of 8.5. 10 μL of dye in dry DMF (10 mg/mL) was added and the sample stirred at room temperature for 2 hours. The protein solution was dialyzed extensively against 10 mM phosphate buffer, 0.15 M NaCl, pH 7.5, to remove excess dye.
Ligand library 1 (200 mg), prepared as described for Example 5, was transferred to a syringe fitted with a stop-valve and the ligand-beads were washed for 10 minutes (3×) with 10 mM phosphate buffer, pH 6.8, supplemented with 0.15 M NaCl, 1 mM Ca^2+, 1 mM Zn^2+, 1 mM Mn^2+, 1 mM Cu^2+, and 1 mM Mg^2+ (3 mL). The ligand-beads were treated with a 1% BSA solution for 30 minutes, then washed with buffer (1×). A mixture of labeled myocyte proteins, including both PE-induced protein (138 μL, 40 μg) and basal protein (167 μL, 40 μg) obtained as described above for Example 11, was prepared in 1.2 mL buffer, and added to the ligand library in the syringe. The proteins and ligand library were incubated at room temperature for 16 hours. The library was then washed with buffer for 5 minutes then with water for 3×5 minutes. The library was examined under a fluorescence microscope and brightly fluorescent red, green, and yellow beads (yellow indicative of both dyes red and green binding; the majority of the beads) were present, as well as unlabelled beads. The fluorescent beads were parted and retained for analysis.
The fluorescent ligand library beads containing bound myocyte protein obtained as described in Example 15, were sorted using a COPAS (250) NF Bead Sorter (Union Biometrica, Somerville, Mass.). Beads emitting fluorescence of only one color contain proteins from one physical state, proteins expressed only in the PE-induced hypertrophic state (red) or proteins expressed only in the basal state (green).

Substance	Identified Protein(s)
F[Aze]GHG[Aze]	Hypothetical proteins; Cysteine and tyrosine rich proteins of unknown; also recorded: function (M); (Mitochondrial ATP synthase; Ribosomal proteins (L; also recorded: series);) Serine protease; SPTR
Phe-Ppy-Acc-Ala-Ppy-Hpy	Hypothetical proteins; Troponin T; (Phospholipase C (MA);; also recorded: Phosphatidylcholine sterol acyl transferase)
